From US20240287564A1, “ACHOLETIN BIOPOLYMERS AND METHODS FOR ENZYMATIC SYNTHESIS” (THE UNIVERSITY OF BRITISH COLUMBIA, priority 2021, published 2024) come the findings set out here.

Series [1] has as its target T1, AchP (Acholeplasma laidlawii, UniProt A9NH41). Nature of the series: Purified AchP donor and acceptor specificity screen. It is filed as biochemical. Particulars: 3 h room temperature, absorbance 655 nm. On the procedure:
AchP was heterologously expressed, purified and screened, in the absence of cell lysate, against an extended set of donors and acceptors, including additional N-acetamido sugars, using a phosphorylase screening method described previously that couples the chromogenic development of molybdenum blue to the liberation of free phosphate during reverse phosphorolysis^39,41 (FIG. 1A). When incubated with Glc1-P as donor, AchP was active in the presence of the acceptors GlcNAc, GlcNAc-β1-pNP, GalNAc and GlcNAc-β1,4-GlcNAc, while no activity was detected with the non-acetylated glucosamine and galactosamine. With GlcNAc1-P as donor, AchP was active with all acceptors that contained an N-acetyl moiety, as well as with glucose and glucosamine, but not galactose and galactosamine.
Thirty-six donor and acceptor combinations were done with purified AchP in a 25 μL reaction volume. 10 μL buffer (200 mM HEPES pH 7.0, 200 mM NaCl, 10 mM MgSO4, 400 mM sodium molybdate) was combined with 5 μL water, 2.5 μL donor (100 mM Glc1-P, 100 mM GlcNAc1-P or 100 mM GalNAc1-P) and 2.5 acceptor (500 mM Glc, 400 mM GlcN, 500 mM GlcNAc, 100 mM GlcNAc-β1-pNP, 500 mM Gal, 500 mM GalN, 500 mM GalNAc, 100 mM GalNAc-α1-pNP, 100 mM Glc-β1,3-Glc, 100 mM GlcNAc-β1,4-GlcNAc, 500 mM ManNAc or no acceptor) in a 200 μL PCR tube. 5 μL of purified AchP (0.2 mg/mL) was added to each reaction which were then incubated for 3 h at room temperature. Each 25 μL reaction was transferred to a separate well of a 96-well plate. 75 μL of development solution was added to each well then incubated for 5 min at room temperature before the reaction was stopped by adding 50 μL of quenching solution. Absorbance at 655 nm was measured with a BioTek Synergy H1 Hybrid™ microtiter plate reader.

Series [2] concerns the target T1, AchP. Nature of the series: AchP reverse phosphorolysis kinetics (phosphate release, molybdenum blue). The format is biochemical. The procedure:
(§1) Kinetic parameters for AchP reverse phosphorolysis were determined using the phosphate release method described previously^44. In brief, phosphate release was coupled to the formation of molybdenum blue, which can be quantified by measuring absorbance at 655 nm. Phosphate concentration was determined using a standard curve ranging between 0 and 10 mM phosphate. Kinetic parameters for AchP were determined with four donor and acceptor combinations: (A) Glc1-P and GlcNAc, (B) Glc1-P and GalNAc, (C) GlcNAc1-P and GlcNAc, and (D) GlcNAc1-P and GalNAc. Donor concentration was held constant at 10 mM while the concentrations of the acceptors were varied (as described below). Reactions were initiated by adding 5 μL of 0.25 mg/mL AchP to 10 μL 2× buffer (200 mM HEPES pH 7.0, 200 mM NaCl, 10 mM MgSO4 and 400 mM sodium molybdate), 2.5 μL of 100 mM donor, 2.5 μL of […] acceptor and 5 μL water. Reactions were stopped at the times (t) indicated below by boiling for 5 min, then 20 μL from each reaction was transferred to a 96-well plate. Molybdenum blue formation was initiated by adding 90 μL of color development solution (0.1 N HCl and 0.24% sodium ascorbate) then incubated for 30 min at room temperature. The color development reaction was stopped by adding 90 μL of quenching solution (68 mM sodium citrate and 2% acetic acid). Absorbance at 655 nm was measured with a BioTek Synergy H1 Hybrid™ microtiter plate reader. All reactions were performed in triplicate and acceptor concentrations were chosen to encompass apparent Km value where possible. (A) 10 mM Glc1-P; 0, 1, 5, 10, 25, 50, 100, 200 and 300 mM GlcNAc; t=2 min 45 s. (B) 10 mM Glc1-P; 0, 5, 25, 50, 100, 150, 200, 300 and 380 mM GalNAc; t=5 min. (C) 10 mM GlcNAc1-P; 0, 0.1, 0.25, 0.5, 1, 2, 5, 10, 25 and 50 mM GlcNAc; t=3 min. (D) 10 mM GlcNAc1-P; 0, 5, 10, 25, 50, 100, 150, 200 and 300 mM GalNAc; t=3 min. Non-linear regression was performed using GraphPad Prism™ version 6.0. For (A) and (C) data were fit using the Michaelis-Menten equation incorporating substrate inhibition: For (B) and (D) data were fit using the standard Michaelis-Menten equation: […]

Series [3] concerns the target T1, AchP. Nature of the series: AchP forward phosphorolysis product analysis (TLC). The format is biochemical. The settings on record: with phosphate. The procedure:
(A) AchP products with GlcNAc1-P (donor) and GlcNAc (GNAc1), GlcNAc-β1,4-GlcNAc (GNAc2), or GlcNAc(-β1,4-GlcNAc)3 (GNAc4) (acceptors) were analyzed by TLC, where the products are outlined in black boxes. (B) AchP forward phosphorolysis product analysis with GlcNAc-β1,4-GlcNAc and phosphate and the reverse phosphorolysis with Glc1-P and GlcNAc was include as a control reaction.
Of the six activities described to date in the GH94 family only the N,N′-diacetylchitobiose phosphorylases (ChbP) are known to use GlcNAc1-P as donor, transferring only to monosaccharide GlcNAc acceptors and not to di- or trisaccharides. The other five types utilize Glc1-P. The bacteria from which both characterized ChbPs were discovered are native to marine environments where chitin, a polysaccharide of β1,4-linked GlcNAc and the primary structural component of the exoskeleton of marine invertebrates, is common. Presumably these ChbPs act on disaccharides released from chitin by chitinases. AchP on the other hand is able to utilize GlcNAc-β1,4-GlcNAc and GlcNAc(-β1,4-GlcNAc)3 as acceptors performing iterative addition of N-acetylglucosaminyl residues (FIG. 4A). As noted earlier, we initially anticipated that AchP was a chitin phosphorylase. […]

Series [4] concerns the target GH101 endo-α-N-acetylgalactosamindase (EngSP) (Streptococcus pneumoniae, UniProt Q8DR60). The settings on record: only minimal aglycone release in controls.
For series [5], the target named is T1, AchP. Nature of the series: AchP reverse phosphorolysis kinetics (phosphate release, molybdenum blue). It is filed as biochemical. The settings on record: as donor (GalNAc1-P) or acceptor (glucose); reasonable substrate and enzyme concentrations.
Substrate in series [6]: CC(=O)NC1C(O)[C@H](O)C(CO)O[C@H]1O
The description is as above. The format is biochemical, Acholeplasma laidlawii. Particulars: acceptor concentration varied, pH 7.0. The procedure:
as §1

Substrate in series [7]: CC(=O)NC1C(O)[C@@H](O)C(CO)O[C@@H]1O
The description is as above. The format is biochemical, Acholeplasma laidlawii. Particulars: other: donor αGlcNAc1-P 10 mM; acceptor concentration varied; pH 7.0. On the procedure:
as §1

Sequence of GH101 endo-α-N-acetylgalactosamindase (EngSP) (Q8DR60 40-1738 limits assumed): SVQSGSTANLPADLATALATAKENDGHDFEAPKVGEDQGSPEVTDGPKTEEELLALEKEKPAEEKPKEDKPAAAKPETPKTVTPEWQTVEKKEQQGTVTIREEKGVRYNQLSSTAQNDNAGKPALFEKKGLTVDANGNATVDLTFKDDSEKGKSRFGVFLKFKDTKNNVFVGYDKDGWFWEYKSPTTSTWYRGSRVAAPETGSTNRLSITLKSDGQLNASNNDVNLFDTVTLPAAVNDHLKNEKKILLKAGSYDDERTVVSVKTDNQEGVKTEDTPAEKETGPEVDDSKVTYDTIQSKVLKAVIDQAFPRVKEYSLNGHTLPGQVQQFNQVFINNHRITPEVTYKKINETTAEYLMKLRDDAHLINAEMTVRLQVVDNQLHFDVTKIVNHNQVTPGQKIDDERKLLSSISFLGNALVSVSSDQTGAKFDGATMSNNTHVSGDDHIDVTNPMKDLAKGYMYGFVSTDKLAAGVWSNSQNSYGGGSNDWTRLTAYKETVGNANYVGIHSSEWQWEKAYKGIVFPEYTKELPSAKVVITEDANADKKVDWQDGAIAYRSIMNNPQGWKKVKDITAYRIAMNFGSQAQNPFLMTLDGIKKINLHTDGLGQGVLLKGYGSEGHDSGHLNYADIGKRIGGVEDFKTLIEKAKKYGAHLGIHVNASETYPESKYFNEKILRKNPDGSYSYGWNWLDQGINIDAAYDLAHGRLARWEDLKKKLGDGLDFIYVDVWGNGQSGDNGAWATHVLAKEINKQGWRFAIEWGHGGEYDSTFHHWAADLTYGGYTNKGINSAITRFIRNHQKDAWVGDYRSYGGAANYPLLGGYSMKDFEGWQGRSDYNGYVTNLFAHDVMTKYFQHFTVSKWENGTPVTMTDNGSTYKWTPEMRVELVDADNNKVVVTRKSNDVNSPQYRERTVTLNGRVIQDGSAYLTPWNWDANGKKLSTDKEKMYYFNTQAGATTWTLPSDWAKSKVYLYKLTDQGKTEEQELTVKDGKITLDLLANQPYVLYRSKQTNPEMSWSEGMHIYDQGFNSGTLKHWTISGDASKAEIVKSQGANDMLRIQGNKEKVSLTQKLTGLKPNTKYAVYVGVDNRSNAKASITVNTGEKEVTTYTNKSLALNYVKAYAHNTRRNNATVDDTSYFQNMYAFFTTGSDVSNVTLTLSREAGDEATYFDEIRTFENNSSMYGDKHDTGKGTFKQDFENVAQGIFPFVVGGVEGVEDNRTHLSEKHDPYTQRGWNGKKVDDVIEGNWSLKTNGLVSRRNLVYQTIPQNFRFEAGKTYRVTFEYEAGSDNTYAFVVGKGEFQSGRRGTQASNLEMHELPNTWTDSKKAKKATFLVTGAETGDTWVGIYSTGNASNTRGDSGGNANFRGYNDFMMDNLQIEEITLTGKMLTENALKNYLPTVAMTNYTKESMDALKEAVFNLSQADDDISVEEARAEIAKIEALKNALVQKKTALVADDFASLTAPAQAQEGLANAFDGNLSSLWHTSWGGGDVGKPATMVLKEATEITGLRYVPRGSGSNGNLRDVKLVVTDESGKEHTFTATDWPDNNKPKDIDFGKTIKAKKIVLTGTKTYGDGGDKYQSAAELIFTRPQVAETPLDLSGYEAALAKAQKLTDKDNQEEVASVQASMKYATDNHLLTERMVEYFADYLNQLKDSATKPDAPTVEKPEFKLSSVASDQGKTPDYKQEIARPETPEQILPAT

With `CC(=O)NC1C(O)[C@@H](O)C(CO)O[C@@H]1O` (stereo partly drawn) [GalNAc, N-acetylgalactosamine], the “AchP activity with acceptor” value at AchP [1] (Glc1-P as donor) was “active”. At AchP [2] (donor αGlc1-P 10 mM, acceptor concentration varied), the kcat amounted to 12.5 ± 0.5 s⁻¹.
In the case of `CC(=O)N[C@H]1[C@H](Oc2ccc([N+](=O)[O-])cc2)O[C@H](CO)[C@@H](O)[C@@H]1O` [GlcNAc-β1-pNP], the “AchP activity with acceptor” value on AchP [1] (Glc1-P as donor) is reported as “active”.
For the molecule `CC(=O)N[C@H]1[C@@H](OP(=O)(O)O)O[C@H](CO)[C@@H](O)[C@@H]1O` [GlcNAc1-P, α-N-acetylglucosamine 1-phosphate], at AchP [2] (GlcNAc as acceptor), the “Km value lower than with Glc1-P as donor” value is around 10 fold and the “kcat greater than with Glc1-P as donor” value was 2 fold.
As for `O=C[C@H](O)[C@@H](O)[C@@H](O)[C@H](O)CO` [galactose, D-galactose], the “AchP activity with acceptor” value on AchP [1] (GlcNAc1-P as donor) is “not”.
For `N[C@H]1C(O)O[C@H](CO)[C@@H](O)[C@@H]1O` (stereo partly drawn) [glucosamine], the “AchP activity with acceptor” value is “no activity” at AchP [1] (Glc1-P as donor) and “active” on AchP [1] (GlcNAc1-P as donor).
For `CC(=O)N[C@H]1[C@H](O[C@H]2[C@H](O)[C@@H](NC(C)=O)C(O)O[C@@H]2CO)O[C@H](CO)[C@@H](O)[C@@H]1O` (stereo partly drawn) [GlcNAc-β1,4-GlcNAc, N,N′-diacetylchitobiose], the “phosphorolysis (substrate cleavage)” value on AchP [3] was “no substrate cleavage could be detected”. For the same molecule, at AchP [1] (Glc1-P as donor), the “AchP activity with acceptor” value is listed as “active”.
Take `OC[C@H]1O[C@@H](O[C@H]2[C@H](O)[C@@H](CO)OC(O)[C@@H]2O)[C@H](O)[C@@H](O)[C@@H]1O` (stereo partly drawn) [laminaribiose]: the “AchP activity with acceptor” value on AchP [1] (Glc1-P as donor) is recorded as “no activity”.
On to `CC(=O)NC1C(OC2C(O)C(CO)OC(Oc3ccc([N+](=O)[O-])cc3)C2NC(C)=O)OC(CO)C(O)C1O` (stereo not drawn) [GlcNAc-β1,3-GalNAc-α1-pNP], for which the “aglycone release after incubation with EngSP” value in series [4] is “release of both pNP and MU aglycones could be detected”.
As to `CC(=O)NC1C(O)[C@H](O)C(CO)O[C@H]1O` (stereo partly drawn) [GlcNAc, N-acetyl-glucosamine], at AchP [1] (Glc1-P as donor), the “AchP activity with acceptor” value is reported as “active”. Moreover, the Ki at AchP [2] (donor αGlcNAc1-P 10 mM, substrate inhibition fit) worked out at 27.1 ± 3.6 mM.
Regarding `CC(=O)NC1C(OC2C(O)C(CO)OC(Oc3ccc4c(C)cc(=O)oc4c3)C2NC(C)=O)OC(CO)C(O)C1O` (stereo not drawn) [GlcNAc-β1,3-GalNAc-α1-MU], the “aglycone release after incubation with EngSP” value in series [4] is “release of both pNP and MU aglycones could be detected”.
Consider `CC(=O)N[C@H]1C(OP(=O)(O)O)O[C@H](CO)[C@H](O)[C@@H]1O` (stereo partly drawn) [GalNAc1-P], for which the “Activities (kinetic parameters not determined)” value at AchP [5] was “too low”.
As for `N[C@H]1C(O)O[C@H](CO)[C@H](O)[C@@H]1O` (stereo partly drawn) [galactosamine], the “AchP activity with acceptor” value is “no activity” at AchP [1] (Glc1-P as donor) and “not” on AchP [1] (GlcNAc1-P as donor).

B1: AchP (Acholeplasma laidlawii PG-8A) (protein)
chain: MKLKQDVISIYQKISLFESGQLNITKLASGAYYLDDELTLITDPVNSGARFPYAVNGMTIWAYASGYISINHSSYYILPPNLEGKEPFLDFFGIEQDGNNTYPVSLLGVSERNDEIENKRYTVFSKNIAYYITVTKNFLYAVTVYISKDFKIYFNTVAHNLTGETKQITLSSFFNMLFKYDSGESIETKWFKKVSYENNMFIYDAPEDIDRHTRIENYGVVKRHLHTKPKNIQNTTSRIDYVGKRYRSVRNALSIRSLKFEKAPLVTNFTDTAINADLINYEVKAYDTIISSYRIETCHDKDTLNKMMASDLTDKEIKKVYEGLSNTQSYDFDNFGISFKGVNDNRVDDKVLNQFLKLVNYQIHFSSLSSNSGTVFLGVRDVMQQLESSLIWDRKNVRSKILEVLSFIDPSGLPPRQYALPPKEGNPRMDLRPFIDQGLWIISTLHTYLAYTEDYDILNEVCGYYERIEPNSAKKSKVENSVLEHLIRVTNYLVSNIDPSTYGLKALYGDWNDALDGLGLIEGSSGYGNGVSVMATLQLYENLERMIEILKLVDPQNEHINTYEVVRHNLSLGINKYAVVIKQDEKRVLHGWGHDRSYFVGSFNDPDGHSRNSLTSNAFYIISDMIKNTPEMKPHLLHAFHNLDSKYGLKTFDPAMQDFHGFGRIINLPPGTAENAATYVHATLFGVLALYMLGEGDFANEQVLKVLPITKKEMSTSPFIMPNSYVHNEELNMDGESMSDWYTGSANTLLKTLIRGLFGLEVKFDHLRLRPSKAFFSKEATLMVSIGNKLTRIVYKNNNNGNRTFKLNGKVIEAKLDTLSGLLYIDINKSILEHQNVIHIQD
Consider B1, for which, in series [6] (other: donor αGlc1-P 10 mM), the Km is listed as 29.9 ± 3.7 mM, the kcat was 24.2 ± 1.6 s⁻¹ and the kcat/Km worked out at 800 ± 400 M⁻¹ s⁻¹. Besides, in series [6] (other: donor αGlcNAc1-P 10 mM), the Km is 3.5 ± 0.4 mM, the catalytic constant (kcat) amounted to 50.8 ± 3.2 s⁻¹ and the kcat/Km is 14500 ± 8000 M⁻¹ s⁻¹. Moreover, in series [7], the Km turned out to be 71.4 ± 4.1 mM, the turnover number (kcat) is 46.7 ± 0.9 s⁻¹ and the kcat/Km was 700 ± 200 M⁻¹ s⁻¹.
